Measured values taken from patent US12209135B2, “Anti-CD45 antibodies and conjugates thereof” (priority 2019, dated 2025).
Marks after values point to notes of the source that are not given here.

Experiments:
AML #2 PDX = assay: AML patient derived xenograft model AML #2 (relapsed refractory post allogeneic HSCT); assay type: in vivo, immune deficient mice (NSG-SGM3, or NSG); details: Table 26; 30 mg/kg QDx5
Description: (§1) A panel of models were evaluated to mimic untreated and refractory disease: AML patient derived xenograft (PDX) models (from treatment naïve and relapsed post allogeneic HCT patients; all FLT-3+NPM1+), ALL cells from an immortalized cell line (REH-Luc), and T-ALL patient-derived xenograft (PDX) model (from a patient progressing post DHAP chemotherapy).
(§2) AML #1 was derived from a treatment naïve patient (J000106134) and AML #2 was derived from a heavily pre-treated relapsed refectory patient post allogenic HSCT (J000106132), The T-ALL was derived from a patient progressing post DHAP chemotherapy. The cell line-derived ALL was transduced to express firefly luciferase. Cells of each tumor type were systemically inoculated into immune deficient mice (NSG-SGM3, or NSG).
(§3) Treatment began when peripheral tumor burden of PDX (n=3-5/group), and CDX mice reached 2-16% blast in the peripheral blood or day 5 post implant for the REH-luc model (n=10/group).
(§4) In the AML patient derived xenograft (PDX) models from treatment naïve and relapsed post allogeneic […] patients, treatment began when 2-16% blasts were detected in the periphery (n=3-5 mice/group/AML PDX model). Mice were treated with a single intravenous dose of anti-human CD45-ADC (AbA-AM), isotype-ADC, or vehicle (PBS). Ara-c was administered intravenously once daily for five consecutive days.

T-ALL PDX = assay: T-ALL patient-derived xenograft (PDX) model; assay type: in vivo, immune deficient mice (NSG-SGM3, or NSG); details: for Median Survival (Days Post Implant): Table 24
Description: as §1, §2, §3

AML #1 PDX = assay: AML patient derived xenograft model AML #1 (treatment naïve); assay type: in vivo, immune deficient mice (NSG-SGM3, or NSG); details: Table 25; 30 mg/kg QDx5
Description: as §1, §2, §3, §4

[1] = Quintieri et al. 2005; cited from earlier work
REH-Luc ALL cells = assay: REH-Luciferase ALL xenograft (CDX) model; assay type: in vivo, immune deficient mice (NSG-SGM3, or NSG); details: Table 23; 3 mg/kg QWx3
Description: as §1, §2, §3
Bioluminescence signal was measured using the IVIS imaging system (PerkinElmer). Radiance (mean±SEM) was captured over a time course of the study. Representative bioluminescence signal pseudo colored images were captured on day 22-23 post-implantation for all treatment groups, as shown in FIG. 29C.

**Q.** What does the source list for `Nc1ccn([C@@H]2O[C@H](CO)[C@@H](O)[C@@H]2O)c(=O)n1` [Ara-C]?
**A.** Median Survival (Days Post Implant) (AML #2 PDX): 60^†‡ Days; Median Survival (Days Post Implant) (T-ALL PDX; 30 mg/kg QDx5): 77*^† Days; Median Survival (Days Post Implant) (AML #1 PDX): 97^† Days

**Q.** Which “cytotoxicity relative to the parent nemorubicin” value [1] does the source give for `COc1cccc2c1C(=O)c1c(O)c3c(c(O)c1C2=O)C[C@@](O)(C(=O)CO)C[C@@H]3O[C@H]1CC2[C@H](O[C@@H]3[C@@H](OC)OCCN23)[C@H](C)O1` (stereo partly shown) [PNU-159682] here?
**A.** Its value is “greater than 3000 fold”.

**Q.** Which results are given for `C[C@@H]1C[C@H]2[C@@H]3CCC4=CC(=O)C=C[C@]4(C)[C@@]3(F)[C@@H](O)C[C@]2(C)[C@@]1(O)C(=O)CO` [Dexamethasone, dexamethasone]?
**A.** Median Survival (Days Post Implant) (T-ALL PDX; 5 mg/kg Q3Dx9): 47*^‡ Days; median survival (T-ALL PDX; text b933, AbA-AM1 single injection 3, or 6 mg/kg on day 5, n=5 mice/group): 47 days

**Q.** Which “Median Survival (Days Post Implant)” value (REH-Luc ALL cells) does the source give for `COc1cccc2c1C(=O)c1c(O)c3c(c(O)c1C2=O)C[C@@](O)(C(=O)CO)C[C@@H]3O[C@H]1C[C@H](N)[C@H](O)[C@H](C)O1` [Doxorubicin, doxorubicin] here?
**A.** The value was 50^† Days.
